Key:
ALK = biological target: T1, ALK (Homo sapiens, UniProt Q9UM73); assay: ALK Kinase Assay (ELISA/TRF, PLC-γ substrate); assay type: biochemical; conditions: ALK kinase inhibition, 1 μM ATP; read-out: ALK Potency
T1 construct: host or cells: baculovirus expression system
Summary of the method: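 PLC-γ substrate coated at 10 μg/mL in TBS; reaction started with 30 ng/ml ALK, run 15 min at 37° C. Phosphoproduct detected by TRF with Eu-N1-labeled PT66 anti-phosphotyrosine antibody. IC50 from sigmoidal variable-slope fit of percent inhibition versus log concentration.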

JAK2 = biological target: T2, JAK2 (Homo sapiens, UniProt O60674); assay: Recombinant Human JAK2 Kinase Assay (TRF); assay type: biochemical; conditions: JAK2 kinase inhibition, 0.2 μM ATP; read-out: JAK2 Potency
T2 construct: host or cells: baculovirus expression system
T2 sequence (O60674 whole entry): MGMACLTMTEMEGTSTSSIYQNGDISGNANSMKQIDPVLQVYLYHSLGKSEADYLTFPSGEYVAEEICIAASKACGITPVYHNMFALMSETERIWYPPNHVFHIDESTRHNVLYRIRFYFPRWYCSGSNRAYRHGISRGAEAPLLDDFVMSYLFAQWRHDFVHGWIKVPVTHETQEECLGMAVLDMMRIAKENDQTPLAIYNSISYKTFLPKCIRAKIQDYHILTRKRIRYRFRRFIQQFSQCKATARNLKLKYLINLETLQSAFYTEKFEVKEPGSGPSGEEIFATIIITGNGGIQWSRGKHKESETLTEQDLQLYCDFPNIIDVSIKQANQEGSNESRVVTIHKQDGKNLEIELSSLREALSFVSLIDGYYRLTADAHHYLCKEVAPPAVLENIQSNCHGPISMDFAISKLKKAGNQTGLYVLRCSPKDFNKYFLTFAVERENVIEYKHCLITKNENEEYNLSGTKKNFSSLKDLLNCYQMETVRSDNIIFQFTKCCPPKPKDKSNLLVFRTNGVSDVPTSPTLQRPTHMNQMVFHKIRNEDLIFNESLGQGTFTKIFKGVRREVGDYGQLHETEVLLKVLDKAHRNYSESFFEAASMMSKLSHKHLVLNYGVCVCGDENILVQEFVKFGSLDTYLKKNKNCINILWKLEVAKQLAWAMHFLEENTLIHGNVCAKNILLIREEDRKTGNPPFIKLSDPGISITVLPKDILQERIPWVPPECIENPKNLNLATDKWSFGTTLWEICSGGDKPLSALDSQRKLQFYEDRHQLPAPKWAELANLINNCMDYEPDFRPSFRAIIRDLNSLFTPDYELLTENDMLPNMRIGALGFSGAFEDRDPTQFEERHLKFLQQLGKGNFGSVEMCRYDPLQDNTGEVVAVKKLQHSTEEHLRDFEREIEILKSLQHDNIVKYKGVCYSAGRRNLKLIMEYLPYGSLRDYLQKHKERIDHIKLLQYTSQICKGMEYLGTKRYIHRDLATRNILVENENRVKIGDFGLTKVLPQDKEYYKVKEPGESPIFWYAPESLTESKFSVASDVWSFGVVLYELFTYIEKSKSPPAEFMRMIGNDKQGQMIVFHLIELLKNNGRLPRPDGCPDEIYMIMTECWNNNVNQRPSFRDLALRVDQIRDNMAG
Summary of the method: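 Europium-labelled PY100 antibody reported tyrosine phosphorylation of a Neutravidin-captured biotinyl 15-mer peptide by JAK2 (baculovirus-expressed, 15 ng/ml). Conditions: 20 mM HEPES pH 7.2, 0.2 μM ATP, 1 mM MnCl2, 0.1% BSA, DMSO 2.5% final, 20 min at room temperature.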

T1 sequence (Q9UM73 19-1620): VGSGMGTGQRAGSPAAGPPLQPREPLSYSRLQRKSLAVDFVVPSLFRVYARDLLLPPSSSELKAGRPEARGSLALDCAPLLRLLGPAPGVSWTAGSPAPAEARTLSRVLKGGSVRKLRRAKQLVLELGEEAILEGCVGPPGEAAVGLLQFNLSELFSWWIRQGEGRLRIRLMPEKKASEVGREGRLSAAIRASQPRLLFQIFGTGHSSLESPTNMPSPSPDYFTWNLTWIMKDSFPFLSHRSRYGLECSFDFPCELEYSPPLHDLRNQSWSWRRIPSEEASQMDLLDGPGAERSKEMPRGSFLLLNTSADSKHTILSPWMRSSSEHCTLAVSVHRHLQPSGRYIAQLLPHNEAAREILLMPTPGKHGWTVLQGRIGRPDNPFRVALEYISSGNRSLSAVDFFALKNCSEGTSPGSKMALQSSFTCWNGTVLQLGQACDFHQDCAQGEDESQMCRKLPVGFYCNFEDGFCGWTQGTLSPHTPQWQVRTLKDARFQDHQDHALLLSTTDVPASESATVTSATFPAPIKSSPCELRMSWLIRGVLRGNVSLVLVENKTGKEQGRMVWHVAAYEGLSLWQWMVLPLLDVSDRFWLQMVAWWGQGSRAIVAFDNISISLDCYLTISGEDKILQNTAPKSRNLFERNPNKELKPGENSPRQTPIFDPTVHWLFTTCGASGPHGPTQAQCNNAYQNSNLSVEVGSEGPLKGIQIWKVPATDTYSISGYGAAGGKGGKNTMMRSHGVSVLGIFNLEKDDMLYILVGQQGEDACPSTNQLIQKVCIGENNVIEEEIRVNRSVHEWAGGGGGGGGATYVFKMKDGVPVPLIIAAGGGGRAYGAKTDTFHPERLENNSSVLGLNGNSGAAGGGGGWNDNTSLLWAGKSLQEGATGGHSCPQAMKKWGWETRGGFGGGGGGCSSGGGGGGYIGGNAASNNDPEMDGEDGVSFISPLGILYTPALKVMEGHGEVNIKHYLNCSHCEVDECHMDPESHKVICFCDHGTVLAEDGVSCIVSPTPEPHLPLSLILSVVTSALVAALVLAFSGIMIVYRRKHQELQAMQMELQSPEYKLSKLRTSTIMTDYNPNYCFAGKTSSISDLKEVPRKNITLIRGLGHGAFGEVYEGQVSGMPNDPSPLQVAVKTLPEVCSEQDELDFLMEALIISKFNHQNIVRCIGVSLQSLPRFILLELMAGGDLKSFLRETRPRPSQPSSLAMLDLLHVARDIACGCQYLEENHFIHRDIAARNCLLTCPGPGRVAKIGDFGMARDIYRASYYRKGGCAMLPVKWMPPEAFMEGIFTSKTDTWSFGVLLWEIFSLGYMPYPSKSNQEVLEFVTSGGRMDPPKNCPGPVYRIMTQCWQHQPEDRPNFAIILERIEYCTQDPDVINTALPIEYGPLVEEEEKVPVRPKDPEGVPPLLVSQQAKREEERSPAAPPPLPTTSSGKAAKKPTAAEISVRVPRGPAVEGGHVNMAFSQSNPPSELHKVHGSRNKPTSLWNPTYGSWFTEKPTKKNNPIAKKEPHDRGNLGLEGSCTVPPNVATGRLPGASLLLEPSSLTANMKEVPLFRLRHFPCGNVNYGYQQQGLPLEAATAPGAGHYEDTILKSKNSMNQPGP

| Compound | IC50 (ALK) [nM] | IC50 (JAK2) [nM] |
| --- | --- | --- |
| CC(C)(C)NS(=O)(=O)c1cccc(-c2ccc3cnc(Nc4ccc(CN5CCS(=O)(=O)CC5)cc4)nn23)c1 [Example 1057, N-tert-Butyl-3-{2-[4-(1,1-dioxo-1 $1(6)-thiomorpholin-4-ylmethyl)-phenylamino]-pyrrolo[2,1-f][1,2,4]triazin-7-yl}-benzenesulfonamide] | 100 to 1000 | < 100 |
| CC(C)(C)NS(=O)(=O)c1cccc(-c2ccc3cnc(Nc4ccc(C5CCN(C(=O)OC(C)(C)C)CC5)cc4)nn23)c1 [Example 1058, 4-{4-[7-(3-tert-Butylsulfamoyl-phenyl)-pyrrolo[2,1-f][1,2,4]triazin-2-ylamino]-phenyl}-piperidine-1-carboxylic acid tert-butyl ester] | > 10000 | < 100 |
| CC(C)(C)NS(=O)(=O)c1cccc(-c2ccc3cnc(Nc4ccc(C5CCNCC5)cc4)nn23)c1 [Example 1059, N-tert-Butyl-3-[2-(4-piperidin-4-yl-phenylamino)-pyrrolo[2,1-f][1,2,4]triazin-7-yl]-benzenesulfonamide] | 100 to 1000 | < 100 |
| CC(C)(C)NS(=O)(=O)c1cccc(-c2ccc3cnc(Nc4ccc5c(c4)N(S(C)(=O)=O)CCC5)nn23)c1 [Example 1060, N-tert-Butyl-3-[2-(1-methanesulfonyl-1,2,3,4-tetrahydro-quinolin-7-ylamino)-pyrrolo[2,1-f][1,2,4]triazin-7-yl]-benzenesulfonamide] | 1000 to 10000 | < 100 |
| COc1ccc(-c2ccc3cnc(Nc4ccc5c(c4)N(S(C)(=O)=O)CCC5)nn23)cn1 [Example 1061, (1-Methanesulfonyl-1,2,3,4-tetrahydro-quinolin-7-yl)-[7-(6-methoxy-pyridin-3-yl)-pyrrolo[2,1-f][1,2,4]triazin-2-yl]-amine] | > 10000 | < 100 |
| CN(c1ccccc1-c1ccc2cnc(Nc3ccc4c(c3)N(S(C)(=O)=O)CCC4)nn12)S(C)(=O)=O [Example 1062, N-{2-[2-(1-Methanesulfonyl-1,2,3,4-tetrahydro-quinolin-7-ylamino)-pyrrolo[2,1-f][1,2,4]triazin-7-yl]-phenyl}-N-methyl-methanesulfonamide] | 100 to 1000 | < 100 |
| NC(=O)CN1CCC(c2ccc(Nc3ncc4ccc(-c5cccc(CO)c5)n4n3)cc2)CC1 [Example 1065, 2-(4-{4-[7-(3-Hydroxymethyl-phenyl)-pyrrolo[2,1-f][1,2,4]triazin-2-ylamino]-phenyl}-piperidin-1-yl)-acetamide] | 100 to 1000 | < 100 |
| CC(C)(C)NS(=O)(=O)c1cccc(-c2ccc3cnc(Nc4ccc5nc(CO)[nH]c5c4)nn23)c1 [Example 1066, N-tert-Butyl-3-[2-(2-hydroxymethyl-3H-benzoimidazol-5-ylamino)-pyrrolo[2,1-f][1,2,4]triazin-7-yl]-benzenesulfonamide] | 1000 to 10000 | < 100 |
| COc1ccccc1-c1ccc2cnc(Nc3ccc4nc(CO)[nH]c4c3)nn12 [Example 1067, {6-[7-(2-Methoxy-phenyl)-pyrrolo[2,1-f][1,2,4]triazin-2-ylamino]-1H-benzoimidazol-2-yl}-methanol] | 100 to 1000 | < 100 |
| O=S(=O)(c1cccc(-c2ccc3cnc(Nc4ccc5nc(CO)[nH]c5c4)nn23)c1)N1CCOCC1 [Example 1068, (6-{7-[3-(Morpholine-4-sulfonyl)-phenyl]-pyrrolo[2,1-f][1,2,4]triazin-2-ylamino}-1H-benzoimidazol-2-yl)-methanol] | 1000 to 10000 | < 100 |
| COc1ccc(-c2ccc3cnc(Nc4ccc5nc(CO)[nH]c5c4)nn23)cn1 [Example 1069, {6-[7-(6-Methoxy-pyridin-3-yl)-pyrrolo[2,1-f][1,2,4]triazin-2-ylamino]-1H-benzoimidazol-2-yl}-methanol] | 1000 to 10000 | < 100 |
